According to ChEMBL document CHEMBL2034913, “A variant peptide of buffalo colostrum β-lactoglobulin inhibits angiotensin I-converting enzyme activity” (Eur J Med Chem, 2012):
Peptide text beside a SMILES is read from it.

How the values were obtained:
[1] = molecular target: T1, Angiotensin-converting enzyme (Rattus norvegicus) (UniProt P47820); experiment: (§1) Inhibition of ACE from rat kidney using hippuryl-histidyl-leucine as substrate after 30 mins by UV/VIS spectrophotometry
T1 sequence (whole entry): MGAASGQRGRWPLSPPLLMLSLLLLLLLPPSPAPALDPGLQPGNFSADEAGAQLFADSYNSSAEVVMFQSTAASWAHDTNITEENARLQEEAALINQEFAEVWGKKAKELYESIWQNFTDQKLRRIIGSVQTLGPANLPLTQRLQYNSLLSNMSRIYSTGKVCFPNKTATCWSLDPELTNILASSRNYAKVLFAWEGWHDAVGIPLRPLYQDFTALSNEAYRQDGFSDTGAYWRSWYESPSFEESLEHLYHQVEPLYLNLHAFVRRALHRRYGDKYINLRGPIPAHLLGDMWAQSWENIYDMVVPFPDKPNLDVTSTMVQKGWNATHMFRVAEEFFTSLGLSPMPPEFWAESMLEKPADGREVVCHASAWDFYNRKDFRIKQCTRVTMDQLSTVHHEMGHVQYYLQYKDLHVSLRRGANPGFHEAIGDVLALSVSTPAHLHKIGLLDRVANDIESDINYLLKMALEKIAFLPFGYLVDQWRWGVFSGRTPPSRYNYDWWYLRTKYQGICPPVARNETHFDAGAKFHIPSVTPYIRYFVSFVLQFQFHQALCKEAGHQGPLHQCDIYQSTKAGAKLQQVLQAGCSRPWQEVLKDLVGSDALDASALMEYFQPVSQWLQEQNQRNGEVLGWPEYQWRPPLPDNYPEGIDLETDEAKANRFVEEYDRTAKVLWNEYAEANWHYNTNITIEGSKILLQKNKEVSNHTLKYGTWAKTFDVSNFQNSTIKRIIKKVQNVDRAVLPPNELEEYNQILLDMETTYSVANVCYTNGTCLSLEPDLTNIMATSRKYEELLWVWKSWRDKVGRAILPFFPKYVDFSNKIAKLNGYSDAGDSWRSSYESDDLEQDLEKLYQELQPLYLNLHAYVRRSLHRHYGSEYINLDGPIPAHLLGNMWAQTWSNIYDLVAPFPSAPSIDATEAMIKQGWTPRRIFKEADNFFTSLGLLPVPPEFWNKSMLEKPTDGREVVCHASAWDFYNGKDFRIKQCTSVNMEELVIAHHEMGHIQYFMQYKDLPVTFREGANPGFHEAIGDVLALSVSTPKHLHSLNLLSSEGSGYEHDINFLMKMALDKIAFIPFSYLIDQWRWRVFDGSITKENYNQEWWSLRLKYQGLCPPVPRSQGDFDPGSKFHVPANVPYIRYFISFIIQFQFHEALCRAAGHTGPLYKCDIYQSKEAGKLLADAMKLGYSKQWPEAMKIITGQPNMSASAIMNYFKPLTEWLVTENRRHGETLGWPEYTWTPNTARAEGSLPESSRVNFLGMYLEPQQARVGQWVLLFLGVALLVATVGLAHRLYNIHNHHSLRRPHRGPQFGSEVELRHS

[2] = molecular target: T2, Angiotensin-converting enzyme (Rattus norvegicus, UniProt P47820); experiment: as §1
T2 sequence (P47820 whole entry): T1 sequence (whole entry)

CC[C@H](C)[C@H](N)C(=O)N[C@H](C(=O)N[C@@H](C)C(=O)N[C@@H](CCSC)C(=O)N[C@@H](CCCCN)C(=O)O)[C@@H](C)CC (H-IIAMK-OH)
inhibition [1]: Dose-dependent effect
IC50 [2]: 498 µM
